Entries after “also recorded” stand apart in the source; their conditions may differ.

The subject of assay [1] is tick kinin receptor (recombinant R. microplus receptor, CHO-K1 BMLK3 cells). Kind of assay: Cellular end-point fluorescence calcium mobilization assay, BMLK3 cells. It is filed as cell-based, Rhipicephalus microplus. The text has this:
(§1) Three peptides were used in this study. These included: 1) the ligand for the endogenous tick kinin receptor from Rhipicephalus sanguineus, Rhisa-kinin 8 peptide of sequence GTGEDQAFSPWGamide (Rhisa-K-8; RK8; of identical sequence to Rhimi-K-8 in Rhipicephalus microplus)[48], 2) the same peptide but fluorescently labeled at the N-terminus with tetramethylrhodamine (TMR) a red fluorescent dye, designated TMR-Rhisa-K-8 (TMR-RK8), and 3) a labeled peptide synthesized with the scrambled sequence of the kinin ligand, designated TMR-Scrambled. The sequence of TMR-RK8 was TMR-C-GTGEDQAFSPWGamide). The TMR-Scrambled kinin (TMR-C-GTQWGPGFEADSamide) served as a negative control for tissue labeling. All peptides were custom-synthesized and purchased from GenScript (Piscataway, NJ, USA) with a purity of ≥ 95% and the cysteine in bold in both sequences was added to attach the label. Experiments were replicated with independently synthesized batches (4 mg each) of labeled and unlabeled peptides, for reproducibility. Unlabeled RK8 was used as a competitive ligand to verify target-specific binding of the labeled TMR-RK8 (see Ligand Competition Assay). For cell assays, the peptide stock solutions (100 µM) were made in 1% dimethyl sulfoxide (DMSO) in Hank’s balanced salt solution (HBSS, Thermo Fisher, Waltham, USA). For fluorescent cell labeling, peptide working solutions (10 µM) were prepared in HBSS from stock solutions. For assays on the midgut, peptides were solubilized and diluted in a tick physiological saline consisting of 140 mM NaCl, 5 mM KCl, 1 mM MgCl2, 5 mM CaCl2, 4 mM NaHCO3, and 5 mM HEPES, pH 7.2[49].
The tick kinin receptor is stably expressed in the recombinant CHO-K1 cell line designated BMLK3 (Boophilus microplus leucokinin receptor 3) that was constructed and selected as described by Holmes, et al.[47]. The CHO-K1 cells had been obtained from the American Type Culture Collection (ATCC) for transfection with the expression construct. This cell line has been kept in the laboratory since 2003. Cells that were transfected only with an empty plasmid are referred to as “vector-only” (V/O) cells and were used as a negative control. Before all experiments, the BMLK3 cell line or V/O cells were separately cultured in T-75 flasks with selective medium (F-12 K medium containing 10% FBS and 800 μgmL^−1 of G418 sulfate) for one to two passages in a humidified incubator at 37 °C and 5% CO2.
A fluorescence-based intracellular calcium mobilization end-point assay described by Xiong, et al.[50] was used to confirm the activity of the TMR-labeled RK8 peptide on a cell line expressing the tick kinin receptor. For this, BMLK3 and V/O cells were cultured in F-12 K medium (1% FBS and 400 μgmL^−1- of G418 Sulfate). The cells were seeded in a 96-well plate with 20,000 cells per well and incubated overnight at 37 °C and 5% CO2. The next morning, cells were prepared for the assay following the manufacturer’s instructions for the Fluo-8 Calcium Flux Assay Kit – NoWash (Abcam, Cambridge, United Kingdom). The F-12 K medium in the plate was removed by inverting the plate and gently blotting on paper towels. […] The calcium fluorescence signal was detected by a CLARIOstar (BMG LABTECH, Chicago, IL, United States) plate reader set to read at the fluorescence plate-mode with excitation and emission wavelengths of 490 and 525 nm at 29 °C. Calcium responses were read immediately after the addition of 10 µL of either TMR-RK8, unlabeled RK8, or blank solvent (1% DMSO in HBSS). […]

Assay [2] relates to tick kinin receptor in midgut muscles. Description: Fluorescent labeling of live midgut ex vivo, confocal microscopy. The format is binding, Rhipicephalus sanguineus.
From the text: as §1
Individual female ticks were immobilized on a Petri dish filled with wax by submerging their legs in melted wax heated with a soldering pencil (Electronic Control Soldering Station EC 1000, Weller, Apex, North Carolina, USA). Females were dissected under physiological saline following the protocol described by Tidwell et al.[51]. The tick was cut along the edge of the scutum/alloscutum using a stainless steel #12 scalpel blade (Integra Miltex, York, PA, USA), after which the scutum was removed with a pair of fine forceps. To expose the midgut for removal, the tracheae, Malpighian tubules, ovaries, rectal sac, and synganglion were removed with fine forceps in that order. The midgut was then carefully removed and placed into 200 µL of fresh tick saline (See Reagents and Peptides) on a single gasketed incubation chamber (500 µL, Size 22 × 40 mm, Electron Microscopy Sciences, Hatfield, PA). The midguts were then rinsed three times with the physiological tick saline for subsequent fluorescent labeling or activity experiments.
To determine the location of the tick kinin receptor in the midgut of ticks, a commercially synthesized Rhisa-kinin peptide 8[52] conjugated with a stable, red fluorophore (TMR-RK8) or a similarly labeled peptide of scrambled sequence (TMR-Scrambled) were applied to freshly dissected midguts ex vivo. For this, midguts of unfed adult females were incubated in ice-cold saline for 10 min. The saline was removed before incubation in 200 µL of 4’,6-diamidino-2-phenylindole dihydrochloride (DAPI, Sigma, 1 µg/mL in saline) for 1 min and rinsed with saline (200 µL) once. After saline removal, the midgut was incubated for 1 min with 200 µL of 10 µM of either TMR-Scrambled kinin or TMR-RK8, then the labeled peptide solution was removed by pipette and the midgut was rinsed twice with 200 µL saline. […]

Regarding TMR-C-GTGEDQAFSPWGamide [TMR-RK8], in assay [1] (10 nM to 10 μM (four concentrations), 1% DMSO in HBSS, Fluo-8, Ex 490/Em 525 nm, 29 °C, read 60 s at 1 s intervals, average raw fluorescence units of 4 technical replicates, simple linear regression), the “intracellular calcium fluorescence response / receptor activation (in words)” value is “activated and labeled the recombinant R. microplus receptor expressed in CHO-K1 cells; also recorded: elicited a dose-dependent intracellular calcium fluorescence response; also recorded: functionally activates the tick recombinant kinin receptor in BMLK3 cells; also recorded: activated the receptor in a dose response fashion, similarly to the unlabeled RK8 peptide”. The “fluorescence units at highest concentration, TMR-RK8 compared with RK8 (in words)” value in assay [1] (highest concentration assayed 10 µM, Fluo-8, 4 technical replicates) was “maximal and similar for the highest concentration assayed of 10 µM”. Moreover, the “effect of TMR label on peptide bioactivity (in words)” value in assay [1] (overlap of confidence intervals of cell responses to TMR-RK8 and RK8) is given as “the TMR fluorescent label did not impair peptide bioactivity”. In addition, the “displacement of TMR-RK8 label by phalloidin (in words)” value in assay [2] (10 µM TMR-RK8, Alexa Fluor 488 Phalloidin 15 min, midgut muscle fibers) is “no observed phalloidin displacement of the TMR-RK8 label”. In addition, in assay [2] (10 µM labeled peptide, 1 min, midguts ex vivo, Z-slices under the surface), the “non-specific labeling below midgut surface (in words)” value is on record as “aggregation of TMR-RK8 signal in what appears to be lipid vesicles; also recorded: non-specific labeling observed in lipid vesicles inside the midgut”. In addition, the “labeling of midgut surface muscles (in words)” value in assay [2] (10 µM labeled peptide, 1 min, tick saline pH 7.2, midguts of unfed females ex vivo, DAPI and Alexa 488-phalloidin, confocal 20X/40X) was “labeled the kinin receptor in muscles; also recorded: localized the kinin receptor to both circular and longitudinal muscles; also recorded: signal was observed in the tick midgut muscles under confocal microscopy; also recorded: observed only on the surface of the midgut; also recorded: binding specifically to the circular (white arrowheads) and longitudinal (white arrows) muscles”.

(Values after PMC11091117, “A fluorescently-tagged tick kinin neuropeptide triggers peristalsis and labels tick midgut muscles” (Scientific Reports, 2024).)
